Test results as given in patent US7396946B2, “Compound for treatment of external secretion disorders” (Sucampo AG, priority 1999, dated 2008).
Marks after values point to notes of the source that are not given here.

What was measured:
[1] = test system: Rabbit Dry-eye Syndrome Model, which was Induced by Trigeminal Denervation; experiment: Keratoepithelial lesion score in rabbit dry-eye syndrome model induced by trigeminal denervation (Test Example 2); type: in vivo, male Japanese albino rabbits (Std:JW/CSK); settings: for Keratoepithelial lesion: score 0-4 by stained area (Table 2), 5 eyes
Procedure: (§1) Fifteen male Japanese albino rabbits (Std:JW/CSK) were used.
(§2) (2) Generating Rabbit Dry-eye Syndrome Model by Trigeminal Denervation.
(§3) Urethane (ALDRICH) was administered i.p. at the dose of 1 g/kg to the rabbits of which occipital hair had been shaved.
(§4) After disinfecting of the shaved area, midline incision of the skin was made from the frontal bone to the ear root, and the muscular tissue around the periosteum, temporal bone and manidibular articular process were detached. After the detachment, a hole of 2×1.5 cm in size was made in the bone from the parietal medial region to the temporal region by means of the bone drill (URAWA KOGYO Co., Ltd. MINITOR C-130) under the surgical microscope (KONAN CAMERA R&I Inc., PMO-50). Then, the dura was detached from the cranial bone while cotton bud was kept inserted between the temporal bone and the dura. After the detachment was made up to the cranial base, detachment was further made toward the medial border of the petrous part of temporal bone in the carnial cavity, to find the trigeminal nerve in the petrous part. Then, the dura of about 1 to 2 mm on the nasal side of the semilunar ganglion was incised. After the incision, the two branches of nerve fascicle, i.e. the first branch (ocular nerve) of the trigeminal nerve and the second branch (maxillary nerve) were pulled laterally and cut with corneoscleral scissors. Immediately after the operation, miosis of the ipsilateral eye was confirmed and then the cotton kept inserted was removed, and the skin at the head was closed with suture. After the operation, an antibiotic (MYCILLIN SQL® Meiji) was administered i.m. at the dose of 0.1 ml/kg.
(§5) The trigeminal denervation was made only on the left eye side, while on the right eye side, no trigeminal denervation nor sham operation was made.
(§6) (3) Method of Administration.
(§7) 13,14-dihydro-15-keto-16,16-difluoro-PGE1 was used as an active ingredient of the present invention to prepare test eyedrops containing 0.0001% and 0.001% of the compound. As a control, the vehicle of the eyedrops without the active ingredient was used.
(§8) Each of the compositions was instilled to the eyes everyday at the volume of 30 μl/eye two times a day (at 10:00 and 18:00) for two weeks. Five eyes per each of the test groups and the control group were treated and then examined for the whole tear secretion, the basal tear secretion and the keratoepithelial lesion as follows.
iii) Keratoepithelial Lesion
Before the start of instillation (week 0) and 1, 2, and 3 weeks after the start, the keratoepithelial lesion was evaluated two hours after the first instillation on the day of examination.
Each animal was placed in a stainless steel fixator, and given instillation of 50 μl of the mixture of 1% rose bengal and 1% fluorescein to stain their keratoconjunctival epithelium.

rats (Crj:CD strain) = experiment: Exaltation of salivation, saliva evaluated visually (Test Example 3); type: in vivo, Male and female rats (Crj:CD strain); settings: 1 mg/kg orally once a day, 16 animals per group
Procedure: The effect of the composition of the present invention on salivary secretion was determined. (1) Test Animals Male and female rats (Crj:CD strain) were used. Each of the test and control groups contains 16 animals. (2) Method of Administration 13,14-dihydro-15-keto-16,16-difuloro-PGE1 was used as an active ingredient of the present invention to prepare test solution containing 0.2 mg/ml of the compound. 5 ml/kg of the solution (1 mg/kg of the compound) was forcedly administrated orally once a day. For the animals of control group, 5 ml/kg of the vehicle without the active ingredient was administrated once a day. The administration was continued for four weeks. (3) Examination The amount of the saliva of the test group and control group was evaluated visually everyday.

[2] = test system: Rabbit Dry-eye Syndrome Model, which was Induced by Trigeminal Denervation; experiment: Whole tear secretion (Schirmer's test) in rabbit dry-eye syndrome model induced by trigeminal denervation (Test Example 2); type: in vivo, male Japanese albino rabbits (Std:JW/CSK); settings: for whole tear secretion: 5 eyes
Procedure: as §1, §2, §3, §4, §5, §6, §7, §8
i) Whole Tear Secretion (Schirmer's Test)
Before the start of the instillation (week 0), and 1, 2, and 3 weeks after the start, the whole tear secretion was measured two hours after the first instillation on the day of examination.
Under no anesthetization, one edge of the Schirmer's test strip (Showa Yakuhin Kako Co., Ltd., Lot No. 70080) was inserted into the conjunctival sac of each test animal. One minute after, the strip was removed and the length of the moistened part was read from the scale provided on the strip to determine the amount of whole tear secretion.

[3] = test system: Rabbit Dry-eye Syndrome Model, which was Induced by Trigeminal Denervation; experiment: Basal tear secretion in rabbit dry-eye syndrome model induced by trigeminal denervation (Test Example 2); type: in vivo, male Japanese albino rabbits (Std:JW/CSK); settings: for basal tear secretion: 5 eyes
Procedure: as §1, §2, §3, §4, §5, §6, §7, §8
Before the start of the instillation (week 0), and 1, 2, and 3 weeks after the start, the basal tear secretion was measured 2 hours after the 1st instillation on the day of the examination.
Keratoconjunctiva was anesthetized by instillation of 4% lidocaine (Xylocalne® 4% for ophthalmic solution; Fujisawa Pharmaceutical Co., Ltd.), the eye drops and the tear around the eyelid were wiped off about 5 minutes after and loss of keratoconjunctival esthesia was confirmed with the Cochet-Bonnet type esthesiometer. Then, one edge of the Shirmer's test strip was inserted into the conjunctival sac and kept there for 5 minutes. The length of the moistened part was read from the scale on the strip.
The basal tear secretion was expressed by mean value per minute calculated from the 4-minutes value obtained by subtracting the initial 1-minute value from the 5-minutes Sirmer's test, so that the spontaneous volume of the tear retained in the conjunctival sac might be excluded.

[4] = 0.0001% eyedrops 30 μl/eye two times a day for two weeks, week 1
[5] = 0.0001% eyedrops 30 μl/eye two times a day for two weeks, week 2
[6] = 0.0001% eyedrops 30 μl/eye two times a day for two weeks, week 3
[7] = 0.001% eyedrops 30 μl/eye two times a day for two weeks, week 1
[8] = 0.001% eyedrops 30 μl/eye two times a day for two weeks, week 2
[9] = 0.001% eyedrops 30 μl/eye two times a day for two weeks, week 3
[10] = dry-eye syndrome model animals, 0.0001% and 0.001% eyedrops
[11] = test group 0.0001% eyedrops, before administration (after operation, baseline)
[12] = test group 0.001% eyedrops, before administration (after operation, baseline)

CCCCC(F)(F)C(=O)CCC1C(O)CC(=O)C1CCCCCCC(=O)O (centres unmarked) [13,14-dihydro-15-keto-16,16-difluoro-PGE1]
Keratoepithelial lesion [1, 4]: 1.00 ± 0.27^[*^]++ score | Keratoepithelial lesion [1, 5]: 0.50 ± 0.16^[*^]++ score | Keratoepithelial lesion [1, 6]: 0.40 ± 0.19^#++ score | Keratoepithelial lesion [1, 7]: 0.70 ± 0.34^++ score | Keratoepithelial lesion [1, 8]: 0.10 ± 0.10^[++] score | Keratoepithelial lesion [1, 9]: 0.10 ± 0.10^[##][++] score | keratoconjunctival lesion accompanied by the decrease of the tear secretion (result in words) [1, 10]: improved | Keratoepithelial lesion [1, 11]: 3.00 ± 0.32^[**^] score | Keratoepithelial lesion [1, 12]: 3.00 ± 0.32^[**^] score | rats in which exaltation of saliva was observed (rats (Crj:CD strain); 10th day after the start of the administration): 8 of 16 | rats showing salivary exaltation (rats (Crj:CD strain); subsequent to the 22nd day after the start): 16 rats | whole tear secretion [2, 4]: 7.10 ± 0.51**^++ mm/min. | whole tear secretion [2, 5]: 6.60 ± 0.37*^##++ mm/min. | whole tear secretion [2, 6]: 6.30 ± 0.68^++ mm/min. | whole tear secretion [2, 7]: 11.20 ± 0.51**^##++ mm/min. | whole tear secretion [2, 8]: 10.50 ± 0.57**^##++ mm/min. | whole tear secretion [2, 9]: 9.90 ± 0.81**^##++ mm/min. | decreased whole tear secretion (result in words) [2, 10]: improved | whole tear secretion [2, 11]: 3.00 ± 0.61 mm/min. | whole tear secretion [2, 12]: 3.20 ± 0.51 mm/min. | basal tear secretion [3, 4]: 1.53 ± 0.26^[+] mm/min. | basal tear secretion [3, 5]: 1.60 ± 0.11**^++ mm/min. | basal tear secretion [3, 6]: 1.48 ± 0.17^#[++] mm/min. | basal tear secretion [3, 7]: 2.00 ± 0.12*^##++ mm/min. | basal tear secretion [3, 8]: 2.00 ± 0.18*^##++ mm/min. | basal tear secretion [3, 9]: 2.00 ± 0.14*^##++ mm/min. | decreased basal tear secretion (result in words) [3, 10]: improved | basal tear secretion [3, 11]: 0.43 ± 0.06^[**^] mm/min. | basal tear secretion [3, 12]: 0.43 ± 0.08 mm/min.
